Test results as given in patent publication US8809010B2, “Method for prophylactic treatment of alzheimer's disease using inhibitors of glutaminyl cyclase and glutamate cyclases” (Probiodrug AG, priority 2003, dated 2014).
Like-named read-outs stand apart in the source and are kept apart here. Each block holds one compound with its values, some of them ahead of it. Ends that are not written are not given here. Peptide text beside a SMILES is read from it. Gln(NMe) = glutamine with N-methylated side-chain amide

Columns and labels:
human QC [1] = biological target: T1, human QC (Homo sapiens, UniProt Q16769); assay: QC inhibitor assay (fluorometric, H-Gln-AMC / H-Gln-βNA, pyroglutamyl aminopeptidase coupled); format: biochemical
T1 construct: The cDNA of the mature QC starting with codon 38 was fused in frame with the plasmid encoded 6× histidine tag; 6xHis; made in house; host or cells: Pichia pastoris X33 (pPICZαB, secreted); also E. coli M15 (pQE-31)
T1 sequence (Q16769 29-361): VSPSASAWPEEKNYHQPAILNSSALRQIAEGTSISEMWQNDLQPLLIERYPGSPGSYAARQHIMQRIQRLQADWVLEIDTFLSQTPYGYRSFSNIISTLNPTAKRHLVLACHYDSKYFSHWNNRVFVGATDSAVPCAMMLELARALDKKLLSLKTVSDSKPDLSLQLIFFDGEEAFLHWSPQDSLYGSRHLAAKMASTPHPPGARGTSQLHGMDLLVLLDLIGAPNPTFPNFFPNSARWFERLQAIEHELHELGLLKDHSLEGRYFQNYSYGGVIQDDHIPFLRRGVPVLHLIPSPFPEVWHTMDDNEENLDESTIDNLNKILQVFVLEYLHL

human QC [2] = biological target: T1, human QC; assay: Qualitative substrate conversion (MALDI-TOF / fluorometric); format: biochemical; design: key to substrate conversion, determined qualitatively: *: determined qualitatively by MALDI-TOF experiments
Procedure: (§1) Matrix-assisted laser desorption/ionization mass spectrometry was carried out using the Hewlett-Packard G2025 LD-TOF System with a linear time of flight analyzer. […] Samples (5 μl) were mixed with equal volumes of the matrix solution. For matrix solution we used DHAP/DAHC, prepared by solving 30 mg 2′,6′-dihydroxyacetophenone (Aldrich) and 44 mg diammonium hydrogen citrate (Fluka) in 1 ml acetonitrile/0.1% TFA in water (1/1, v/v). A small volume (≈1 μl) of the matrix-analyte-mixture was transferred to a probe tip and immediately evaporated in a vacuum chamber (Hewlett-Packard G2024A sample prep accessory) to ensure rapid and homogeneous sample crystallization.
In order to further investigate the specificity and selectivity of the QCs, peptides were synthesized comprising either a modified N-terminal glutaminyl residue or a modified amino acid in the second position. […] Due to the cyclization of the glutaminyl residue or its analog, respectively, a mass difference of the substrate and the product of catalysis is detected. In cases of ammonia liberation of one mole per mole of substrate, the conversion was also analyzed quantitatively using the spectrophotometric assay.

human QC [3] = biological target: T1, human QC; assay: Long-term Glu1-cyclization of Aβ-derived peptides by recombinant human QC, MALDI-TOF; format: biochemical; details: pH 5.2 and 6.5
Procedure: For long-term testing of Glu^1-cyclization, Aβ-derived peptides were incubated in 100 μl 0.1 M sodium acetate buffer, pH 5.2 or 0.1 M Bis-Tris buffer, pH 6.5 at 30° C. Peptides were applied in 0.5 mM [Aβ3-11a] or 0.15 mM [Aβ3-21a] concentrations, and 0.2 U QC was added all 24 hours. In case of Aβ3-21a, the assays contained 1% DMSO. At different times, samples were removed from the assay tube, peptides extracted using ZipTips (Millipore) according to the manufacturer's recommendations, mixed with matrix solution (1:1 v/v) and subsequently the mass spectra recorded. Negative controls did either contain no QC or heat deactivated enzyme.
The QC-catalyzed formation of [pGlu^3]Aβ3-11a and [pGlu^3]Aβ3-21a was investigated at pH 5.2 and 6.5, respectively. If the QC-inhibitor benzimidazole was added to the solution before starting the assay by addition of QC, substrate conversion resulting in [pGlu^3]Aβ3-11a or [pGlu^3]Aβ3-21a was suppressed (FIGS. 15E and F). If QC was boiled before addition, formation of the pGlu-peptides was negligible (FIGS. 15A and B).

mammalian QC = mammalian QC (Bos taurus, UniProt Q28120); details: cited from earlier work
Sequence of mammalian QC (Q28120 29-361): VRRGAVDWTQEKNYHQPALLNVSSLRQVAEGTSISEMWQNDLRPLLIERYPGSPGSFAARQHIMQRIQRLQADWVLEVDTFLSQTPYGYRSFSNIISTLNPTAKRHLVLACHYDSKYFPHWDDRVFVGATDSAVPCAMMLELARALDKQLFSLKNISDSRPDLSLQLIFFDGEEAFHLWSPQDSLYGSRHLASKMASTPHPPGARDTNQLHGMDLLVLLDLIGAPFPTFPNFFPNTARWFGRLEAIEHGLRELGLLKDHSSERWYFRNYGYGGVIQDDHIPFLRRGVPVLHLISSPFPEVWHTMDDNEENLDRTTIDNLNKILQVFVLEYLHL

human QC [4] = biological target: T1, human QC; assay: Continuous spectrophotometric QC assay (glutamate dehydrogenase coupled), substrate kinetics; format: biochemical; details: for Ki* (mM): for substrate inhibition;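 as to all read-outs here: initial rates read on a microplate reader at 30 °C, with enzyme activity quantified against an ammonia calibration curve under the same assay conditions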
Procedure: The initial velocities were evaluated and the enzymatic activity was determined from a standard curve of ammonia under assay conditions. All samples were measured at 30° C., using either the [sequence]luor Plus or the Sunrise (both from TECAN) reader for microplates. Kinetic data was evaluated using GraFit software.

human QC [5] = biological target: T1, human QC; details: cited from earlier work
human QC [6] = biological target: T1, human QC; assay: Enzyme inactivation/reactivation procedures; format: biochemical; details: extensive dialysis against 5 mM chelator
[7] = system: QC in porcine pituitary homogenate; assay: Formation of [pGlu3]Aβ3-11a in porcine pituitary homogenate, MALDI-TOF; format: biochemical
Procedure: as §1

[8] = Human QC, 0.05M Tris-HCl, pH 8.0
[9] = Human QC, 0.05M Tris-HCl, pH 8.0, 0.5 M KCl

Res. Act. (%) (human QC [1]; residual QC activity with inhibitor): 19.0%
Compound: O=C(NCCCn1ccnc1)Nc1cc(F)cc2c1OCOC2 [Example 97]

conversion by human QC (human QC [2]): No substrate conversion was observed
inhibition of human QC (human QC [1]): not detected
Compound: H-Gln(NMe)-Phe-Lys-Ala-Glu-NH2 ({Gln(NMe)}-FKAE-NH2)

glutamate-containing peptide as QC-substrate (human QC [3]): can also serve as QC-substrates
Compound: EFRHDSGYE-NH2 [Aβ3-11a]

inhibition of human QC (human QC [1]): loss of inhibitory quality
Compound: O=C(c1ccccc1)n1ccnc1 [1-benzoylimidazole]

Compound: reduced 6-methylpterin
inhibition of mammalian QC (mammalian QC): Inhibition

kcat (human QC [4]; Human QC): 12.8 ± 0.5 s⁻¹
Ki (mM) (human QC [4]; [8]): n.i.
kcat (human QC [4]; [8]): 12.8 ± 0.3 s⁻¹
Ki (mM) (human QC [4]; [9]): n.i.
kcat (human QC [4]; [9]): 12.2 ± 0.1 s⁻¹
Ki* (mM) (human QC [4]; Human QC): n.i.
Compound: NC(=O)CC[C@H](N)C(N)=O [H-Gln-NH2]
conversion by human QC (human QC [2]): converted glutaminamide to products readily

Compound: phenylimidazole
inhibition of human QC (human QC [1]): inactive under the experimental conditions

Compound: O=C(O)c1cccc(C(=O)O)n1 [dipicolinic acid]
inhibition of human QC (human QC [5]): inhibited
inactivation of human QC (human QC [6]): almost completely inactivated

conversion by human QC (human QC [2]): None of these compounds were converted
Compound: COC(=O)CC[C@H](N)C(=O)Nc1ccc2ccccc2c1 [H-Glu(OMe)-βNA]

conversion by human QC (human QC [2]): no reactivity
KM (μM) (human QC [4]; Human QC): n.r.
kcat (s^−1) (human QC [4]; Human QC): n.r.
Compound: NC(=O)CC[C@H](N)C(=O)O [H-Gln-OH]

glutamate-containing peptide as QC-substrate (human QC [3]): can also serve as QC-substrates
Compound: EFRHDSGYEVHHQKLVFFA-NH2 [Aβ3-21a]

kcat (human QC [4]; Human QC): 57.2 ± 0.4 s⁻¹
Ki (mM) (human QC [4]; [8]): n.i.
kcat (human QC [4]; [8]): 54.4 ± 0.5 s⁻¹
Ki (mM) (human QC [4]; [9]): n.i.
kcat (human QC [4]; [9]): 47.6 ± 0.6 s⁻¹
Ki* (mM) (human QC [4]; Human QC): n.i.
Compound: C[C@H](NC(=O)[C@@H](N)CCC(N)=O)C(=O)O [H-Gln-Ala-OH] (H-Gln-Ala-OH)

Ki (human QC [1]): 1.53 µM
Compound: N#CN=C(NCCCn1ccnc1)NCc1ccc2c(c1)OCO2 [Example 81]

Ki (human QC [1]): 0.7 µM
Compound: COc1ccc(NC(=S)NCCCn2ccnc2)cc1 [Example 11, 1-(3-(1H-imidazol-1-yl)propyl)-3-(4-methoxyphenyl)thiourea]

inactivation of human QC (human QC [6]): almost completely inactivated
Compound: c1cnc2c(c1)ccc1cccnc12 [1,10-phenanthroline]
inhibition of human QC (human QC [5]): inhibited
formation of [pGlu^3]Aβ3-11a from [Gln^3]Aβ1-11a, consecutive catalysis by DP IV and QC ([7]; pituitary homogenate with added DPIV from porcine kidney): not formed
formation of [pGlu^3]Aβ3-11a from [Gln^3]Aβ3-11a ([7]; porcine pituitary homogenate): inhibited
inhibition of mammalian QC (mammalian QC): Inhibition

kcat (human QC [4]; Human QC): 6.7 ± 0.2 s⁻¹
Ki* (mM) (human QC [4]; Human QC): n.i.
Compound: CC(C)(C)OC(=O)C(N)CCC(N)=O (stereo not drawn) [H-Gln-OtBu]

inhibition of human QC (human QC [1]): not inhibited
Compound: H-EFKRLA-NH2 [H-Glu-Phe-Lys-Arg-Leu-Ala-NH2]

substrate conversion, determined qualitatively (human QC [2]; Human QC, MALDI-TOF): *
Compound: [Gln^5]-substance P (5-11): QC substrate (QQFFGLM; ends and bridges not checked)

conversion by human QC (human QC [2]): converted
Compound: CC(C)C[C@H](NC(=O)[C@H](CCCNC(=N)N)NC(=O)[C@H](CCCCNC(=O)[C@@H](N)CCC(N)=O)NC(=O)[C@@H](N)CCC(N)=O)C(=O)N[C@@H](C)C(N)=O [H-Gln-Lys(Gln)-Arg-Leu-Ala-NH2] (H-QK(Gln)RLA-NH2)

kcat (human QC [4]; Human QC): 20.7 ± 0.2 s⁻¹
Ki* (mM) (human QC [4]; Human QC): n.i.
Compound: NC(=O)CC[C@H](NC(=O)[C@@H](N)CCC(N)=O)C(=O)O [H-Gln-Gln-OH] (H-Gln-Gln-OH)

kcat (human QC [4]; recombinant human QC, buffer containing 1% DMSO): 62 ± 3 s⁻¹
Compound: QFRHDSGYEVHHQKLVFFA-NH2 [[Gln^3]Aβ3-21a]

Compound: NCCCn1ccnc1 [1-aminopropyl-imidazole]
inhibition of human QC (human QC [1]): one of the less effective compounds of this group

kcat (human QC [4]; Human QC): 82.8 ± 1.2 s⁻¹
Compound: NC(=O)CC[C@H](N)C(=O)N[C@@H](Cc1c[nH]cn1)C(=O)N1CCC[C@H]1C(N)=O [[Gln^1]-TRH] (H-Gln-His-Pro-NH2)

inhibition of human QC (human QC [1]): not inhibited
Compound: COC(=O)CC[C@H](N)C(=O)N[C@@H](Cc1ccccc1)C(=O)N[C@@H](CCCCN)C(=O)N[C@@H](CCCNC(=N)N)C(=O)N[C@@H](CC(C)C)C(=O)N[C@@H](C)C(N)=O [H-Glu(OMe)-Phe-Lys-Arg-Leu-Ala-NH2] (H-E(OMe)FKRLA-NH2)
